# Measured values published in patent publication US7851474B2, “Dipiperazinyl ketones and related analogues” (Neurogen Corporation, priority 2005, dated 2010).
# Biological target: T1, chimeric human H3 receptor (Homo sapiens, UniProt Q9Y5N1, E19D)
# T1 construct: made in house; host or cells: Sf9 insect cells (baculovirus infection); P2 membrane preparation
# Assay: Chimeric human H3 receptor GTP binding assay (agonist-stimulated GTP-gamma35S binding, Example 7)
# Format: biochemical
# Conditions: assay of Example 7; "*" in Ki of Table II; read-out: Ki
# Method in brief: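 Sf9 membranes co-expressing the chimeric receptor and heterotrimeric G-protein subunits, 35 μg protein per tube, in pH 7.4 Tris buffer with 10 μM GDP. Test compounds at 10^−10 to 10^−6 M with 1 μM histamine, 60 min at room temperature. Filter-bound GTP-gamma^35S read by scintillation; IC50 from non-linear regression of dose-response curves.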
# T1 sequence (Q9Y5N1 with tags, fused parts or gaps E19D): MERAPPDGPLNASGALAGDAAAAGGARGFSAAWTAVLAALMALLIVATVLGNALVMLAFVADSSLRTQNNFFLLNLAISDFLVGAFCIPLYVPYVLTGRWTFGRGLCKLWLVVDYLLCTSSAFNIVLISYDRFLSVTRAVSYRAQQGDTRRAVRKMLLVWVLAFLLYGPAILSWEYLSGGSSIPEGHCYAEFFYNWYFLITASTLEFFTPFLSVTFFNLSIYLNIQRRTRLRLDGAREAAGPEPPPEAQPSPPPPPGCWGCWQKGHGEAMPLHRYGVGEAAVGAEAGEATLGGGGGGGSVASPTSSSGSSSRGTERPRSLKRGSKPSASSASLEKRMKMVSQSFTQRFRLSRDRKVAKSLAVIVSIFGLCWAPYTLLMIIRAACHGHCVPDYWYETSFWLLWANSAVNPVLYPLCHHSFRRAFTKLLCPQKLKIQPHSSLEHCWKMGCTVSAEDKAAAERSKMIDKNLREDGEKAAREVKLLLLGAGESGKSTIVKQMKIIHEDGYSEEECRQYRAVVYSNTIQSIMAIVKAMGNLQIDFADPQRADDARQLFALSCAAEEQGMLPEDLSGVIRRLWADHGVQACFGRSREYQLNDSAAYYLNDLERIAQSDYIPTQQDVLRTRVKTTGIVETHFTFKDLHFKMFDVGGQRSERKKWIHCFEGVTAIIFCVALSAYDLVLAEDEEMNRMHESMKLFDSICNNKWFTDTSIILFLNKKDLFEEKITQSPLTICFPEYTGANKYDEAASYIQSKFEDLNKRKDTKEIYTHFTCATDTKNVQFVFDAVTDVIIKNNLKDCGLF
row,Ki [nM],SMILES
1,< 1000,"CNC(=O)c1ccc(N2CCN(CC(=O)N3CCN(C4CCC4)CC3)CC2)nc1 [Compound 1167, 6-{4-[2-(4-cyclobutylpiperazin-1-yl)-2-oxoethyl]piperazin-1-yl}-N-methylnicotinamide]"
2,< 1000,"CCC(C)CNC(=O)c1ccc(N2CCN(CC(=O)N3CCN(C4CCC4)CC3)CC2)nc1 (stereo not shown) [Compound 1173, 6-{4-[2-(4-cyclobutylpiperazin-1-yl)-2-oxoethyl]piperazin-1-yl}-N-(2-methylbutyl)nicotinamide]"
3,< 1000,"CCNC(=O)c1ccc(N2CCN(CC(=O)N3CCN(C4CCC4)CC3)CC2)nc1 [Compound 1174, 6-{4-[2-(4-cyclobutylpiperazin-1-yl)-2-oxoethyl]piperazin-1-yl}-N-ethylnicotinamide]"
4,< 1000,"CCCNC(=O)c1ccc(N2CCN(CC(=O)N3CCN(C4CCC4)CC3)CC2)nc1 [Compound 1175, 6-{4-[2-(4-cyclobutylpiperazin-1-yl)-2-oxoethyl]piperazin-1-yl}-N-propylnicotinamide]"
5,< 1000,"O=C(NCC1CC1)c1ccc(N2CCN(CC(=O)N3CCN(C4CCC4)CC3)CC2)nc1 [Compound 1176, 6-{4-[2-(4-cyclobutylpiperazin-1-yl)-2-oxoethyl]piperazin-1-yl}-N-(cyclopropylmethyl) nicotinamide]"
6,< 1000,"CC(C)CNC(=O)c1ccc(N2CCN(CC(=O)N3CCN(C4CCC4)CC3)CC2)nc1 [Compound 1177, 6-{4-[2-(4-cyclobutylpiperazin-1-yl)-2-oxoethyl]piperazin-1-yl}-N-isobutylnicotinamide]"
7,< 1000,"CCCCCNC(=O)c1ccc(N2CCN(CC(=O)N3CCN(C4CCC4)CC3)CC2)nc1 [Compound 1178, 6-{4-[2-(4-cyclobutylpiperazin-1-yl)-2-oxoethyl]piperazin-1-yl}-N-pentylnicotinamide]"
8,< 1000,"CC(C)CCNC(=O)c1ccc(N2CCN(CC(=O)N3CCN(C4CCC4)CC3)CC2)nc1 [Compound 1179, 6-{4-[2-(4-cyclobutylpiperazin-1-yl)-2-oxoethyl]piperazin-1-yl}-N-(3-methylbutyl)nicotinamide]"
9,< 1000,"CC(C)NC(=O)c1ccc(N2CCN(CC(=O)N3CCN(C4CCC4)CC3)CC2)nc1 [Compound 1182, 6-{4-[2-(4-cyclobutylpiperazin-1-yl)-2-oxoethyl]piperazin-1-yl}-N-isopropylnicotinamide]"
10,< 1000,"CCCC(C)NC(=O)c1ccc(N2CCN(CC(=O)N3CCN(C4CCC4)CC3)CC2)nc1 (stereo not shown) [Compound 1184, 6-{4-[2-(4-cyclobutylpiperazin-1-yl)-2-oxoethyl]piperazin-1-yl}-N-(1-methylbutyl)nicotinamide]"
11,< 1000,"CC(C)(C)CNC(=O)c1ccc(N2CCN(CC(=O)N3CCN(C4CCC4)CC3)CC2)nc1 [Compound 1187, 6-{4-[2-(4-cyclobutylpiperazin-1-yl)-2-oxoethyl]piperazin-1-yl}-N-(2,2-dimethylpropyl) nicotinamide]"
12,< 1000,"CCC(CC)CNC(=O)c1ccc(N2CCN(CC(=O)N3CCN(C4CCC4)CC3)CC2)nc1 [Compound 1188, 6-{4-[2-(4-cyclobutylpiperazin-1-yl)-2-oxoethyl]piperazin-1-yl}-N-(2-ethylbutyl)nicotinamide]"

# Further lines, the compound ahead of its results:
row,SMILES,Ki [nM]
1,"O=C1OCc2cc(N3CCN(CC(=O)N4CCN(C5CCCC5)CC4)CC3)ccc21 [Compound 1159, 5-{4-[2-(4-cyclopentylpiperazin-1-yl)-2-oxoethyl]piperazin-1-yl}-2-benzofuran-1(3H)-one]",< 1000
2,"O=C1CCc2cc(N3CCN(CC(=O)N4CCN(C5CCCC5)CC4)CC3)ccc21 [Compound 1160, 5-{4-[2-(4-cyclopentylpiperazin-1-yl)-2-oxoethyl]piperazin-1-yl}indan-1-one]",< 1000
3,"CC(C)CN1CCN(C(=O)CN2CCN(c3ccc4c(c3)COC4=O)CC2)CC1 [Compound 1161, 5-{4-[2-(4-isobutylpiperazin-1-yl)-2-oxoethyl]piperazin-1-yl}-2-benzofuran-1(3H)-one]",< 1000
4,"CC(C)CN1CCN(C(=O)CN2CCN(c3ccc4c(c3)CCC4=O)CC2)CC1 [Compound 1162, 5-{4-[2-(4-isobutylpiperazin-1-yl)-2-oxoethyl]piperazin-1-yl}indan-1-one]",< 1000
5,"O=C1CCCc2cc(N3CCN(CC(=O)N4CCN(C5CCC5)CC4)CC3)ccc21 [Compound 1165, 6-{4-[2-(4-cyclobutylpiperazin-1-yl)-2-oxoethyl]piperazin-1-yl}-3,4-dihydronaphthalen-1(2H)-one]",< 1000
6,"O=C(NC1CCCC1)c1ccc(N2CCN(CC(=O)N3CCN(C4CCC4)CC3)CC2)nn1 [Compound 1166, 6-{4-[2-(4-cyclobutylpiperazin-1-yl)-2-oxoethyl]piperazin-1-yl}-N-cyclopentylpyridazine-3-carboxamide]",< 1000
7,"CCN(C(=O)c1ccc(N2CCN(CC(=O)N3CCN(C4CCC4)CC3)CC2)nc1)C(C)C [Compound 1168, 6-{4-[2-(4-cyclobutylpiperazin-1-yl)-2-oxoethyl]piperazin-1-yl}-N-ethyl-N-isopropylnicotinamide]",< 1000
8,"CC(C)N(C)C(=O)c1ccc(N2CCN(CC(=O)N3CCN(C4CCC4)CC3)CC2)nc1 [Compound 1169, 6-{4-[2-(4-cyclobutylpiperazin-1-yl)-2-oxoethyl]piperazin-1-yl}-N-isopropyl-N-methylnicotinamide]",< 1000
9,"CN(C(=O)c1ccc(N2CCN(CC(=O)N3CCN(C4CCC4)CC3)CC2)nc1)C1CCCCC1 [Compound 1170, 6-{4-[2-(4-cyclobutylpiperazin-1-yl)-2-oxoethyl]piperazin-1-yl}-N-cyclohexyl-N-methylnicotinamide]",< 1000
10,"CCN(C(=O)c1ccc(N2CCN(CC(=O)N3CCN(C4CCC4)CC3)CC2)nc1)C1CCCCC1 [Compound 1171, 6-{4-[2-(4-cyclobutylpiperazin-1-yl)-2-oxoethyl]piperazin-1-yl}-N-cyclohexyl-N-ethylnicotinamide]",< 1000
11,"COCCN(C(=O)c1ccc(N2CCN(CC(=O)N3CCN(C4CCC4)CC3)CC2)nc1)C(C)C [Compound 1172, 6-{4-[2-(4-cyclobutylpiperazin-1-yl)-2-oxoethyl]piperazin-1-yl}-N-isopropyl-N-(2-methoxyethyl)nicotinamide]",< 1000
12,"O=C(NCC(F)(F)F)c1ccc(N2CCN(CC(=O)N3CCN(C4CCC4)CC3)CC2)nc1 [Compound 1180, 6-{4-[2-(4-cyclobutylpiperazin-1-yl)-2-oxoethyl]piperazin-1-yl}-N-(2,2,2-trifluoroethyl) nicotinamide]",< 1000
13,"O=C(NC1CCCCC1)c1ccc(N2CCN(CC(=O)N3CCN(C4CCC4)CC3)CC2)nc1 [Compound 1181, 6-{4-[2-(4-cyclobutylpiperazin-1-yl)-2-oxoethyl]piperazin-1-yl}-N-cyclohexylnicotinamide]",< 1000
14,"O=C(NC1CCCC1)c1ccc(N2CCN(CC(=O)N3CCN(C4CCC4)CC3)CC2)nc1 [Compound 1183, 6-{4-[2-(4-cyclobutylpiperazin-1-yl)-2-oxoethyl]piperazin-1-yl}-N-cyclopentylnicotinamide]",< 1000
15,"O=C(NC1CCCCCC1)c1ccc(N2CCN(CC(=O)N3CCN(C4CCC4)CC3)CC2)nc1 [Compound 1185, 6-{4-[2-(4-cyclobutylpiperazin-1-yl)-2-oxoethyl]piperazin-1-yl}-N-cycloheptylnicotinamide]",< 1000
16,"O=C(NCC1CCCCC1)c1ccc(N2CCN(CC(=O)N3CCN(C4CCC4)CC3)CC2)nc1 [Compound 1186, 6-{4-[2-(4-cyclobutylpiperazin-1-yl)-2-oxoethyl]piperazin-1-yl}-N-(cyclohexylmethyl) nicotinamide]",< 1000
17,"N#Cc1ccc(N2CCN(CC(=O)N3CCN(C4CCC4)CC3)CC2)nn1 [Compound 1189, 6-{4-[2-(4-cyclobutylpiperazin-1-yl)-2-oxoethyl]piperazin-1-yl}pyridazine-3-carbonitrile]",< 1000
18,O=C(CN1CCC2(CC1)C(=O)NCN2c1ccccc1)N1CCN(C2CCC2)CC1 [Compound 1190],< 1000
19,CC(C)N1CN(c2ccccc2)C2(CCN(CC(=O)N3CCN(C4CCC4)CC3)CC2)C1=O [Compound 1191],< 1000
20,"CC(C)OC1=NCN(c2ccccc2)C12CCN(CC(=O)N1CCN(C3CCC3)CC1)CC2 [Compound 1192, 8-[2-(4-cyclobutylpiperazin-1-yl)-2-oxoethyl]-4-isopropoxy-1-phenyl-1,3,8-triazaspiro[4.5]dec-3-ene]",< 1000
21,"O=C(OCc1ccccc1)c1cccc(N2CCN(CC(=O)N3CCN(C4CCC4)CC3)CC2)c1 [Compound 1193, benzyl 3-{4-[2-(4-cyclobutylpiperazin-1-yl)-2-oxoethyl]piperazin-1-yl}benzoate]",< 1000
22,"O=C(c1ccc(N2CCN(CC(=O)N3CCN(C4CCC4)CC3)CC2)cc1)C1CCC1 [Compound 1194, cyclobutyl(4-{4-[2-(4-cyclobutylpiperazin-1-yl)-2-oxoethyl]piperazin-1-yl}phenyl)methanone]",< 1000
23,"CCOC(=O)c1cccc(-c2cnc(N3CCN(CC(=O)N4CCN(C5CCC5)CC4)CC3)cn2)c1 [Compound 1195, ethyl 3-(5-{4-[2-(4-cyclobutylpiperazin-1-yl)-2-oxoethyl]piperazin-1-yl}pyrazin-2-yl)benzoate]",< 1000
24,"CCOC(=O)c1cccc(-c2ccc(N3CCN(CC(=O)N4CCN(C5CCC5)CC4)CC3)nn2)c1 [Compound 1196, ethyl 3-(6-{4-(2-(4-cyclobutylpiperazin-1-yl)-2-oxoethyl]piperazin-1-yl}pyridazin-3-yl)benzoate]",< 1000
25,"CCOC(=O)c1ccc(-c2cnc(N3CCN(CC(=O)N4CCN(C5CCC5)CC4)CC3)cn2)cc1 [Compound 1197, ethyl 4-(5-{4-[2-(4-cyclobutylpiperazin-1-yl)-2-oxoethyl]piperazin-1-yl}pyrazin-2-yl)benzoate]",< 1000
